Source: patent US9732094B2, “Arylquinazolines” (Merck Patent GmbH, priority 2013, dated 2017)
Read-outs that look alike come from different tables or passages of the source.

Columns and labels:
DNA-PK = DNA-PK (Homo sapiens (Human), UniProt P78527); assay: DNA-PK assay (biochemical), flashplate 33P-ATP kinase assay; conditions: biochemical DNA-PK assay
Outline: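 Radiometric kinase reaction in streptavidin-coated flashplates, stopped with 200 mM EDTA, then 30 min room-temperature incubation and saline washes.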

Kv11.1 (hERG) = Kv11.1 (hERG) (Homo sapiens (Human), UniProt Q12809); assay: Kv11.1 (hERG) ion channel activity (patch clamp assay), HEK293 cells transfected with hERG gene; conditions: hERG patch clamp assay (cells without asterisk)
Kv11.1 (hERG), sequence (Q12809 whole entry): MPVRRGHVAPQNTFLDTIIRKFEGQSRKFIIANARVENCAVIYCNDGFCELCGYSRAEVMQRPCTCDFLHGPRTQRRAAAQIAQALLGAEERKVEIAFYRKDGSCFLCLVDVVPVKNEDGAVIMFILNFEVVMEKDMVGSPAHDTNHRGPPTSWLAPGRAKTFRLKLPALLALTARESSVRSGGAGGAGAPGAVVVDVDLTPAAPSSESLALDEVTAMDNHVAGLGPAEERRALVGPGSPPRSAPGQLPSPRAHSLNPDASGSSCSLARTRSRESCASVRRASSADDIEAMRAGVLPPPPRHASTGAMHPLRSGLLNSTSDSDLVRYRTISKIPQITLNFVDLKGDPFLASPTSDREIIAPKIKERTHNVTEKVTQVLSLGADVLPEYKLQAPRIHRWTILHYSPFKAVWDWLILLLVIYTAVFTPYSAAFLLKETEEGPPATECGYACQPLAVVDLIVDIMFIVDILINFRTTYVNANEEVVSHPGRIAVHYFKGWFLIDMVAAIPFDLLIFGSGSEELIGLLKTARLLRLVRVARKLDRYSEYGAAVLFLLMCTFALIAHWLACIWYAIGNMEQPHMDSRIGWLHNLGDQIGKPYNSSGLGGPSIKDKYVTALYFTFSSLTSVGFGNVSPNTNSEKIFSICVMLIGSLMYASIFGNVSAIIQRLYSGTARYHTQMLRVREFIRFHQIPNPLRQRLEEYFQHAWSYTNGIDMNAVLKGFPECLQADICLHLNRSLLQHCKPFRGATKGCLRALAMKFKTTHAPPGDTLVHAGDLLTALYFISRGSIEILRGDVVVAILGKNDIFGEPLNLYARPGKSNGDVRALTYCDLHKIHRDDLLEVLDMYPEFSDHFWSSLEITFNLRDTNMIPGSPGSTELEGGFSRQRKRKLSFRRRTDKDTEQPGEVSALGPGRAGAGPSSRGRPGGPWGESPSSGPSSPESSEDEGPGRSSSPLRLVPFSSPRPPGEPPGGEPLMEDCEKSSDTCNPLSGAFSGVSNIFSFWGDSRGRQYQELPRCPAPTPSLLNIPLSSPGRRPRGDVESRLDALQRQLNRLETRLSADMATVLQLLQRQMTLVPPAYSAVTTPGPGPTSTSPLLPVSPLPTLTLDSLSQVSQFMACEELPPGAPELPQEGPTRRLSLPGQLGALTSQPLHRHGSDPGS

[1] = molecular target: DNA-PK phosphorylation at serine 2056 (Homo sapiens (Human), UniProt P78527); assay: DNA-PK phosphorylation at serine 2056 (cellular), bleomycin-treated HCT116 cells, ELISA; assay type: cell-based; conditions: cellular DNA-PK phosphorylation at serine 2056, HCT116; read-out: IC50 pDNA-PK
Outline: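 Chemiluminescent ELISA quantified DNA-PK Ser2056 phosphorylation relative to total DNA-PKcs in HCT116 cells. Cells received compounds together with 10 μM bleomycin for 6 h; DMSO served as blank.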

Compound | IC50 (DNA-PK) | Ki (Kv11.1 (hERG); Ki [Kv1.11 hERG]) | IC50 [1] | Ki (Kv11.1 (hERG); read-out: Ki [Kv1.11 hERG])
Cc1nccnc1C(O)c1cc(-c2ncnc3cc(N4CCOCC4)ccc23)ccc1F (stereo not drawn) [Example 393, [2-Fluoro-5-(7-morpholin-4-yl-quinazolin-4-yl)-phenyl]-(3-methyl-pyrazin-2-yl)-methanol] | 3 to 7 nM | 15 to 25 µM | 5000 to 10000 nM | 
COc1nccnc1C(O)c1cc(-c2ncnc3cc(N4CCOCC4)ccc23)ccc1F (stereo not drawn) [Example 394, [2-Fluoro-5-(7-morpholin-4-yl-quinazolin-4-yl)-phenyl]-(3-methoxy-pyrazin-2-yl)-methanol] | 3 to 7 nM |  | 500 to 5000 nM | < 10 µM
OC(c1cc(-c2ncnc3cc(N4CCOCC4)ccc23)c(F)cc1Cl)c1nccn2ccnc12 (stereo not drawn) [Example 397, [2-Chloro-4-fluoro-5-(7-morpholin-4-yl-quinazolin-4-yl)-phenyl]imidazo-[1,2-a]pyrazin-8-yl-methanol] | 3 to 7 nM |  | < 500 nM | > 25 µM
CCn1c(C(O)c2ccc(F)c(-c3ncnc4cc(N5CCOCC5)ccc34)c2)cccc1=O (stereo not drawn) [Example 398, 1-Ethyl-6-{[4-f1uoro-3-(7-morpholin-4-yl-quinazolin-4-yl)-phenyl]hydroxy-methyl}-1H-pyridin-2-one] | 3 to 7 nM |  | 500 to 5000 nM | > 25 µM
OC(c1ccc(F)c(-c2ncnc3cc(N4CCOCC4)ccc23)c1)c1nnc2ccccn12 (stereo not drawn) [Example 399, [4-Fluoro-3-(7-morpholin-4-yl-quinazolin-4-yl)-phenyl]-[1,2,4]-triazolo[4,3-a]pyridin-3-ylmethanol] | < 3 nM |  | 500 to 5000 nM | > 25 µM
Cn1c(C(O)c2cc(-c3ncnc4cc(N5CCOCC5)ccc34)ccc2Cl)cccc1=O (stereo not drawn) [Example 400, 6-{[2-Chloro-5-(7-morpholin-4-yl-quinazolin-4-yl)-phenyl]hydroxy-methyl}-1-methyl-1H-pyridin-2-one] | < 3 nM | 15 to 25 µM | < 500 nM | 
Cn1c(C(O)c2cc(-c3ncnc4cc(N5CCOCC5)ccc34)ccc2F)cccc1=O (stereo not drawn) [Example 401, 6-{[2-Fluoro-5-(7-morpholin-4-yl-quinazolin-4-yl)-phenyl]hydroxy-methyl}-1-methyl-1H-pyridin-2-one] | 3 to 7 nM | 10 to 15 µM | 500 to 5000 nM | 
Cn1ncc2c(C(O)c3cc(-c4ncnc5cc(N6CCOCC6)ccc45)c(F)cc3Cl)ncnc21 (stereo not drawn) [Example 402, [2-Chloro-4-fluoro-5-(7-morpholin-4-yl-quinazolin-4-yl)-phenyl]-(1-methyl-1H-pyrazolo[3,4-d}-pyrimidin-4-yl)-methanol] | 3 to 7 nM | 15 to 25 µM | 500 to 5000 nM | 
Cn1ncc2c(C(O)c3cc(-c4ncnc5cc(N6CCOCC6)ccc45)c(F)cc3F)ncnc21 (stereo not drawn) [Example 403, [2,4-Difluoro-5-(7-morpholin-4-yl-quinazolin-4-yl)-phenyl]-(1-methyl-1H-pyrazolo[3,4-d}-pyrimidin-4-yl)-methanol] | 3 to 7 nM | 15 to 25 µM | 500 to 5000 nM | 
Cn1ncc2c(C(O)c3ccc(F)c(-c4ncnc5cc(N6CCOCC6)ccc45)c3)ncnc21 (stereo not drawn) [Example 404, [4-Fluoro-3-(7-morpholin-4-yl-quinazolin-4-yl)-phenyl]-(1-methyl-1H-pyrazolo[3,4-d}-pyrimidin-4-yl)-methanol] | 3 to 7 nM |  | < 500 nM | > 25 µM
OC(c1cc(-c2ncnc3cc(N4CCOCC4)ccc23)ccc1F)c1ncnc2ccsc12 (stereo not drawn) [Example 405, [2-Fluoro-5-(7-morpholin-4-yl-quinazolin-4-yl)-phenyl]thieno[3,2-d}-pyrimidin-4-yl-methanol] | < 3 nM |  | < 500 nM | < 10 µM
OC(c1cc(-c2ncnc3cc(N4CCOCC4)ccc23)ccc1F)c1ncnc2sccc12 (stereo not drawn) [Example 406, [2-Fluoro-5-(7-morpholin-4-yl-quinazolin-4-yl)-phenyl]thieno[2,3-d}-pyrimidin-4-yl-methanol] | < 3 nM | 10 to 15 µM | < 500 nM | 
Cc1cncnc1C(C(N)=O)c1cc(-c2ncnc3cc(N4CCOCC4)ccc23)ccc1Cl (stereo not drawn) [Example 407, 2-[2-Chloro-5-(7-morpholin-4-yl-quinazolin-4-yl)-phenyl]-2-(5-methyl-pyrimidin-4-yl)-acetamide] | < 3 nM |  | 500 to 5000 nM | 15 to 25 µM
COc1cncnc1C(O)c1cc(-c2ncnc3cc(N4CCOCC4)ccc23)ccc1Cl (stereo not drawn) [Example 408, [2-Chloro-5-(7-morpholin-4-yl-quinazolin-4-yl)-phenyl]-(5-methoxy-pyrimidin-4-yl)-methanol] | 3 to 7 nM | 10 to 15 µM | 500 to 5000 nM | 
COc1cncnc1C(O)c1cc(-c2ncnc3cc(N4CCOCC4)ccc23)ccc1Cl (stereo not drawn) [Example 409, [2-Chloro-5-(7-morpholin-4-yl-quinazolin-4-yl)-phenyl]-(5-methoxy-pyrimidin-4-yl)-methanol] | 3 to 7 nM |  | 500 to 5000 nM | > 25 µM
COc1nccnc1C(O)c1cc(-c2ncnc3cc(N4CCOCC4)ccc23)ccc1Cl (stereo not drawn) [Example 410, [2-Chloro-5-(7-morpholin-4-yl-quinazolin-4-yl)-phenyl]-(3-methoxy-pyrazin-2-yl)-methanol] | < 3 nM |  | < 500 nM | < 10 µM
COc1nccnc1[C@@H](O)c1cc(-c2ncnc3cc(N4CCOCC4)ccc23)ccc1Cl [Example 411, (S)-[2-Chloro-5-(7-morpholin-4-yl-quinazolin-4-yl)-phenyl]-(3-methoxy-pyrazin-2-yl)-methanol] | 3 to 7 nM | 10 to 15 µM | 500 to 5000 nM | 
OC(c1cc(-c2ncnc3cc(N4CCOCC4)ccc23)ccc1Cl)c1ncncc1F (stereo not drawn) [Example 412, [2-Chloro-5-(7-morpholin-4-yl-quinazolin-4-yl)-phenyl]-(5-fluoro-pyrimidin-4-yl)-methanol] | 7 to 30 nM | 15 to 25 µM | 5000 to 10000 nM | 
COc1cncnc1C(O)c1cc(-c2ncnc3cc(N4CCOCC4)ccc23)ccc1Cl (stereo not drawn) [Example 413, [2-Chloro-5-(7-morpholin-4-yl-quinazolin-4-yl}-phenyl]-(5-methoxy-pyrimidin-4-yl)-methanol] | 3 to 7 nM | 15 to 25 µM | 500 to 5000 nM | 
OC(c1cc(-c2ncnc3cc(N4CCOCC4)ccc23)ccc1Cl)c1ncnc2ccoc12 (stereo not drawn) [Example 414, [2-Chloro-5-(7-morpholin-4-yl-quinazolin-4-yl)-phenyl]furo[3,2-d}-pyrimidin-4-yl-methanol] | 7 to 30 nM | 10 to 15 µM | < 500 nM | 
OC(c1cc(-c2ncnc3cc(N4CCOCC4)ccc23)ccc1Cl)c1ncnc2ccoc12 (stereo not drawn) [Example 415, [2-Chloro-5-(7-morpholin-4-yl-quinazolin-4-yl)-phenyl]furo[3,2-d}-pyrimidin-4-yl-methanol] | 3 to 7 nM |  | < 500 nM | 10 to 15 µM
OC(c1cc(-c2ncnc3cc(N4CCOCC4)ccc23)ccc1Cl)c1ncnc2occc12 (stereo not drawn) [Example 416, [2-Chloro-5-(7-morpholin-4-yl-quinazolin-4-yl)-phenyl]furo[2,3-d}-pyrimidin-4-yl-methanol] | 3 to 7 nM | 10 to 15 µM | 500 to 5000 nM | 
Cc1cncnc1C(O)c1cc(-c2ncnc3cc(N4CCOCC4)ccc23)ccc1Cl (stereo not drawn) [Example 417, [2-Chloro-5-(7-morpholin-4-yl-quinazolin-4-yl)-phenyl]-(5-methyl-pyrimidin-4-yl)-methanol] | 7 to 30 nM | 15 to 25 µM | 500 to 5000 nM | 
Cc1cncnc1C(O)c1cc(-c2ncnc3cc(N4CCOCC4)ccc23)ccc1Cl (stereo not drawn) [Example 418, [2-Chloro-5-(7-morpholin-4-yl-quinazolin-4-yl)-phenyl]-(5-methyl-pyrimidin-4-yl)-methanol] | 7 to 30 nM |  | 500 to 5000 nM | > 25 µM
Cc1cncnc1C(O)c1cc(-c2ncnc3cc(N4CCOCC4)ccc23)ccc1Cl (stereo not drawn) [Example 419, [2-Chloro-5-(7-morpholin-4-yl-quinazolin-4-yl)-phenyl]-(5-methyl-pyrimidin-4-yl)-methanol] | 7 to 30 nM |  | 500 to 5000 nM | 15 to 25 µM
Cn1cnc2c(C(O)c3ccc(F)c(-c4ncnc5cc(N6CCOCC6)ccc45)c3)ncnc21 (stereo not drawn) [Example 420, [4-Fluoro-3-(7-morpholin-4-yl-quinazolin-4-yl)-phenyl]-(9-methyl-9H-purin-6-yl)-methanol] | 7 to 30 nM |  | 5000 to 10000 nM | > 25 µM
Cn1cnc2c(C(O)c3cc(-c4ncnc5cc(N6CCOCC6)ccc45)c(F)cc3F)ncnc21 (stereo not drawn) [Example 421, [2.4-Difluoro-5-(7-morpholin-4-yl-quinazolin-4-yl)-phenyl]-(9-methyl-9H-purin-6-yl)-methanol] | 7 to 30 nM |  | 500 to 5000 nM | > 25 µM
COc1nccnc1C(O)c1cc(-c2ncnc3cc(N4CCOCC4)ccc23)ccc1Cl (stereo not drawn) [Example 422, [2-Chloro-5-(7-morpholin-4-yl-quinazolin-4-yl)-phenyl]-(3-methoxy-pyrazin-2-yl)-methanol] | 3 to 7 nM |  | 500 to 5000 nM | 10 to 15 µM
Cn1cnc2ncnc(C(O)c3cc(-c4ncnc5cc(N6CCOCC6)ccc45)c(F)cc3Cl)c21 (stereo not drawn) [Example 423, [2-Chloro-4-fluoro-5-(7-morpholin-4-yl-quinazolin-4-yl)-phenyl]-(7-methyl-7H-purin-6-yl)-methanol] | 7 to 30 nM |  | 5000 to 10000 nM | > 25 µM
